Among the data in paper PMC12036557, “Functional Imaging of CYP3A4 at Multiple Dimensions Using an AI‐Driven High Performance Fluorogenic Substrate” (Small (Weinheim an Der Bergstrasse, Germany), 2025) are activity values, retold here.

Chain of CYP3A4 (P08684 whole entry): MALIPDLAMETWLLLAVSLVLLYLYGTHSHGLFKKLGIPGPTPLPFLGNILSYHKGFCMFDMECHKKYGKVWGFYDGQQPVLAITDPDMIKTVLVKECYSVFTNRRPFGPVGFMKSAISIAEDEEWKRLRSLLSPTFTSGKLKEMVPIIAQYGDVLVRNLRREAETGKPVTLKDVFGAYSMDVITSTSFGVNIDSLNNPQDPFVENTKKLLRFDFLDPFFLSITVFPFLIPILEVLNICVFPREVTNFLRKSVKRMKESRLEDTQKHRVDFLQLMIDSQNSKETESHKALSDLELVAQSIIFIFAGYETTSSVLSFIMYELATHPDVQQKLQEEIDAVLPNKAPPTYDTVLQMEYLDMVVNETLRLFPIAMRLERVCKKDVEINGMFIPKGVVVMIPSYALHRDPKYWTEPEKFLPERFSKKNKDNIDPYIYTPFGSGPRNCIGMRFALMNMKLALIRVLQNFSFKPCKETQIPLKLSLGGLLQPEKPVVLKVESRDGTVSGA

This data set has as its target CYP3A4 (Homo sapiens, UniProt P08684). The data set is described as follows: NFa-based screening and characterizing of hCYP3A4 inhibitors in HLMs. The following applies: human, human liver microsomes, pH 7.4, probe NFa (4-hydroxylation to 4-HNFa).
With `O=C1c2cccc(O)c2C(=O)c2cccc(O)c21` [1,5-Dihydroxyanthraquinone], the activity at 30 min, 1 µM came out at 99.8%.
Consider `O=C1c2cccc(Cl)c2C(=O)c2c(Cl)cccc21` [1,8-Dichloroanthraquinone], for which the activity at 30 min, 1 µM was 85.5%.
On to `Nc1cccc2c1C(=O)c1ccccc1C2=O` [1-Aminoanthraquinone], for which the activity at 30 min, 1 µM is 62.6%.
In the case of `O=C1c2ccccc2C(=O)c2c(O)cccc21` [1-Hydroxy anthraquinone], the activity at 30 min, 1 µM worked out at 90.5%.
In the case of `O=C1c2ccc(Br)cc2C(=O)c2ccc(Br)cc21` [2,6-Dibromoanthraquinone], the activity at 30 min, 1 µM was found to be 85.5%.
To `O=C1c2ccc(O)cc2C(=O)c2ccc(O)cc21` [2,6-Dihydroxyanthraquinone] belongs 88.8%; to `CCc1ccc2c(c1)C(=O)c1ccccc1C2=O` [2-Ethyl anthraquinone], 79.8%; to `Cc1ccc2c(c1)C(=O)c1ccccc1C2=O` [2-Methyl anthraquinone], 83.6%.
On to `COc1ccc(-c2cc(=O)c3c(O)cc(O)cc3o2)cc1` [Acacetin], for which the activity at 30 min, 1 µM amounted to 49.9%.
On to `COc1cc(O)cc2c1C(=O)C[C@@H](c1ccccc1)O2` [Alpinetin], for which the activity at 30 min, 1 µM was 95.7%.
With `O=C(O)c1ccc2c(c1)C(=O)c1ccccc1C2=O` [Anthraquinone-2-carboxylic acid], the activity at 30 min, 1 µM came to 98%.
Regarding `COc1cc(C[C@H]2C(=O)OC[C@@H]2Cc2ccc(OC)c(OC)c2)ccc1O` [Arctigenin], the activity at 30 min, 1 µM was determined as 103%.
Turning to `CC(C)=CCc1cc2c(cc1O)O[C@H](c1ccc(O)cc1)CC2=O` [Bavachin], the activity at 30 min, 1 µM worked out at 71.6%.
In the case of `COc1ccc(-c2coc3cc(O)ccc3c2=O)cc1O` [Calycosin], the activity at 30 min, 1 µM came to 99.3%.
As to `COc1cc2c(cc1OC)C(=O)/C(=C/c1ccco1)C2` [D2, (E)-2-(Furan-2-ylmethylene)-5,6-dimethoxy-2,3-dihydro-1H-inden-1-one], the activity at 30 min, 1 µM turned out to be 102%.
To `COc1cc2c(cc1OC)C(=O)/C(=C/c1ccc(-c3ccccc3)cc1)C2` [D3, (E)-2-([1,1'-Biphenyl]-4-ylmethylene)-5,6-dimethoxy-2,3-dihydro-1H-inden-1-one] belongs 75.9%.
Regarding `COc1cc2c(cc1OC)C(=O)/C(=C/c1ccccc1C)C2` [D4, (E)-5,6-Dimethoxy-2-(2-methylbenzylidene)-2,3-dihydro-1H-inden-1-one], the activity at 30 min, 1 µM worked out at 58.1%.
In the case of `COc1cc2c(cc1OC)C(=O)/C(=C/c1cccc(C)c1)C2` [D5, (E)-5,6-dimethoxy-2-(3-methylbenzylidene)-2,3-dihydro-1H-inden-1-one], the activity at 30 min, 1 µM was 72.3%.
Regarding `COc1ccc(/C=C2\Cc3cc(OC)c(OC)cc3C2=O)cc1` [D6, (E)-5,6-Dimethoxy-2-(4-methoxybenzylidene)-2,3-dihydro-1H-inden-1-one], the activity at 30 min, 1 µM turned out to be 67.8%.
Consider `COc1ccccc1C(=O)/C=C/c1ccc2ccccc2c1` [D7, (E)-1-(2-methoxyphenyl)-3-(naphthalen-2-yl)prop-2-en-1-one], for which the activity at 30 min, 1 µM turned out to be 95.7%.
As to `O=C(/C=C/c1ccc2ccccc2c1)c1ccccc1O` [D8, (E)-1-(2-hydroxyphenyl)-3-(naphthalen-2-yl)prop-2-en-1-one], the activity at 30 min, 1 µM came out at 88%.
As to `COc1cc(O)c(C(=O)/C=C/c2ccc3ccccc3c2)c(OC)c1OC` [D9, (E)-1-(6-hydroxy-2,3,4-trimethoxyphenyl)-3-(naphthalen-2-yl)prop-2-en-1-one], the activity at 30 min, 1 µM was found to be 85%.
To `COc1cc(O)c(C(=O)/C=C/c2ccc3ncccc3c2)c(OC)c1OC` [D12, (E)-1-(6-hydroxy-2,3,4-trimethoxyphenyl)-3-(quinolin-6-yl)prop-2-en-1-one] belongs 70%; to `COc1cccc(C(=O)/C=C/c2ccc3nccnc3c2)c1` [D14, (E)-1-(3-methoxyphenyl)-3-(quinoxalin-6-yl)prop-2-en-1-one], 63.9%; to `O=C(/C=C/c1ccc2nccnc2c1)c1ccccc1O` [D15, (E)-1-(2-hydroxyphenyl)-3-(quinoxalin-6-yl)prop-2-en-1-one], 64.5%.
For the molecule `COc1cccc(O)c1C(=O)/C=C/c1ccc2nc(Cl)ccc2c1` [D16, (E)-3-(2-chloroquinolin-6-yl)-1-(2-hydroxy-6-methoxyphenyl)prop-2-en-1-one], the activity at 30 min, 1 µM came out at 100%.
For the molecule `COc1ccc(C(=O)/C=C/c2ccc3nc(Cl)ccc3c2)c(O)c1` [D17, (E)-3-(2-chloroquinolin-6-yl)-1-(2-hydroxy-4-methoxyphenyl)prop-2-en-1-one], the activity at 30 min, 1 µM was determined as 83.6%.
With `COc1cc(O)c(C(=O)/C=C/c2ccc3nccnc3c2)c(OC)c1` [D18, (E)-1-(2-hydroxy-4,6-dimethoxyphenyl)-3-(quinoxalin-6-yl)prop-2-en-1-one], the activity at 30 min, 1 µM amounted to 54%.
To `COc1cc2c(cc1OC)[C@@H](Cc1ccc(Oc3cc(C[C@@H]4c5cc(OC)c(OC)cc5CCN4C)ccc3O)cc1)N(C)CC2` [Dauricine] belongs 92.8%; to `COc1cc(O)ccc1/C=C/C(=O)c1ccc(O)cc1` [Echinatin], 47.6%; to `Cc1c(O)c(C)c2c(c1O)C(=O)C[C@@H](c1ccc(O)cc1)O2` [Farrerol], 73.5%.
`COc1ccc(-c2coc3cc(O)ccc3c2=O)cc1` [Formononetin]: the activity at 30 min, 1 µM was 98.9%.
On to `O=c1c(O)c(-c2ccccc2)oc2cc(O)cc(O)c12` [Galangin], for which the activity at 30 min, 1 µM was found to be 94%.
On to `COc1cc2c(=O)c(-c3ccc(O)cc3)coc2cc1O` [Glycitein], for which the activity at 30 min, 1 µM turned out to be 104%.
Turning to `CC1(C)[C@@H](O)CC[C@]2(C)[C@H]3C(=O)C=C4[C@@H]5C[C@@](C)(C(=O)O)CC[C@]5(C)CC[C@@]4(C)[C@]3(C)CC[C@@H]12` [Glycyrrhetinic acid], the activity at 30 min, 1 µM came to 66.9%.
For the molecule `O=c1c(O)c(-c2ccc(O)cc2)oc2c(O)c(O)cc(O)c12` [Herbacetin], the activity at 30 min, 1 µM amounted to 91.1%.
Regarding `CC(C)=CCc1c(O)ccc(C(=O)/C=C/c2ccc(O)cc2)c1O` [Isobavachalcone], the activity at 30 min, 1 µM stood at 54.2%.
To `O=c1c(O)c(-c2ccc(O)cc2)oc2cc(O)cc(O)c12` [Kaempferol] belongs 67.9%; to `CC(C)=CCc1cc(-c2coc3cc(O)ccc3c2=O)ccc1O` [Neobavaisoflavone], 87.9%.
As to `O=c1cc(-c2ccccc2)oc2c(O)c(O)cc(O)c12` [Norwogonin], the activity at 30 min, 1 µM amounted to 85.3%.
For `O=C(CCc1ccc(O)cc1)c1c(O)cc(O)cc1O` [Phloretin], the activity at 30 min, 1 µM amounted to 97.3%.
As for `COc1c(OC)c2occc2c2oc(=O)ccc12` [Pimpinellin], the activity at 30 min, 1 µM amounted to 103%.
As to `O=C(O)c1ccc(O)c(O)c1` [Protocatechuic acid], the activity at 30 min, 1 µM was 109%.
As for `Oc1ccc(/C=C/c2cc(O)cc(O)c2)cc1` [Resveratrol], the activity at 30 min, 1 µM turned out to be 72.1%.
As to `COc1c(O)cc2occ(-c3ccc(O)cc3)c(=O)c2c1O` [Tectorigenin], the activity at 30 min, 1 µM came out at 95.5%.
To `C[C@H]1[C@H](C)CC[C@]2(C(=O)O)CC[C@]3(C)C(=CC[C@@H]4[C@@]5(C)CC[C@H](O)C(C)(C)[C@@H]5CC[C@]43C)[C@H]12` [Ursolic acid] belongs 99.3%.
